Assay results as given in patent publication US20170152269A1, “FUSED BICYCLIC COMPOUNDS AND THEIR USE AS CDK INHIBITORS” (priority 2016, published 2017).
Where a name gives a salt, the structure may show the parent alone.

Assays:
CDK4 = molecular target: T1, CDK4 (Homo sapiens, UniProt P11802); experiment: Lance TR-FRET kinase assay, CDK4; format: biochemical; details: ATP 100 μM, 60 min, read-out: CDK 4 inhibitory activity (IC50)
T1 construct: purchased ThermoFisher (Waltham, Mass.)
Description: (§1) Inhibitory activity of compounds against CDK1/2/4/5/6/7 was assessed using Lance TR-FRET assay kits from Perkin Elmer Life Sciences (Waltham, Mass.). CDK1/2/4/5/6/7 enzymes were purchased from ThermoFisher (Waltham, Mass.). […] Final concentrations of substrates and DMSO were 100 nM and 0.5%, respectively. Concentrations of ATP and different CDK enzymes were adjusted accordingly to achieve optimal enzymatic activities. Final CDK concentrations were 100, 500, 600, 100, 50, and 200 ng/well and ATP concentrations were 30, 50, 100, 20, 100, and 50 μM for CDK1/2/4/5/6/7, respectively. Assay plates were covered to protect from light and spun for 1 min at 700 RPM. Reactions were allowed to perform for 60 minutes in dark with gentle shaking at room temperature after which 5 μL of 40 mM EDTA in detection buffer was added to stop reactions followed 5 μL of the Eu labeled antibodies giving final concentrations of 2 nM to detect the phosphorylation of the peptide substrates. […] The percent of inhibition was calculated from the means of data points using the formula: 100−(Signalcompound−NoSignalbackground)*100/(Signalvehicle−NoSignalbackground). The IC50s were determined with GraphPad Prism by the non-linear sigmoidal curve fitting of data from 10 doses.

CDK6 = molecular target: T2, CDK6 (Homo sapiens, UniProt Q00534); experiment: Lance TR-FRET kinase assay, CDK6; format: biochemical
T2 construct: purchased ThermoFisher (Waltham, Mass.)
T2 sequence (Q00534 whole entry): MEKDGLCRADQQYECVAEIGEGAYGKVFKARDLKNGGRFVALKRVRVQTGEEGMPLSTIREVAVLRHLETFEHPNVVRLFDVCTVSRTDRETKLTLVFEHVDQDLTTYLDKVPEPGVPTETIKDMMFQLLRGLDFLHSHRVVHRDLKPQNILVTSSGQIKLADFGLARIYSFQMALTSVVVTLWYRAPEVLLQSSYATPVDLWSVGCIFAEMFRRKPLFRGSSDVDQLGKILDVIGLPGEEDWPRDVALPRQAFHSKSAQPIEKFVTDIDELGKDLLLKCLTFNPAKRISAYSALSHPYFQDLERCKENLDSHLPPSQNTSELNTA
T2 sequence (P24385 whole entry partner): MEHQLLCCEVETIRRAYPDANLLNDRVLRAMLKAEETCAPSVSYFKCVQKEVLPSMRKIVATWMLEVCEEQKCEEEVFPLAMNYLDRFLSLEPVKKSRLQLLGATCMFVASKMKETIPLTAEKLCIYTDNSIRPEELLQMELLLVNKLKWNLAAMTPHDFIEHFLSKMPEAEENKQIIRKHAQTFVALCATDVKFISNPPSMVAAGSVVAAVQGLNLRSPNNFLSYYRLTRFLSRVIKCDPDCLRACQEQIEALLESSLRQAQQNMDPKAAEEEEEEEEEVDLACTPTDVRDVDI
Description: (§2) Time Resolved-Fluorescent Resonance Energy Transfer (TR-FRET) was used to determine inhibitory ability of compounds A1˜A19, B1s and B1˜B12 against the enzymatic activity of CDK1, CDK2, CDK4, CDK5, CDK6, CDK7, and CDK9.
(§3) Inhibitory activity of compounds against CDK1/2/4/5/6/7 was assessed using Lance TR-FRET assay kits from Perkin Elmer Life Sciences (Waltham, Mass.). CDK1/2/4/5/6/7 enzymes were purchased from ThermoFisher (Waltham, Mass.). 2.5 μL of compound solutions and 2.5 μL of enzyme solutions in kinase assay buffer, which was 50 mM HEPES (pH 7.5) with 1 mM EGTA, 1 mM MgCl2, 2 mM DTT, and 0.01% Tween-20, were added into a white OptiPlate-384 plate followed by adding 5 μL of fluorescently labeled peptide substrates (Ulight-4E-BP1 for CDK4/6 and Ulight-MBP for […]) and ATP mixture solutions. Final concentrations of substrates and DMSO were 100 nM and 0.5%, respectively. Concentrations of ATP and different CDK enzymes were adjusted accordingly to achieve optimal enzymatic activities. Final CDK concentrations were 100, 500, 600, 100, 50, and 200 ng/well and ATP concentrations were 30, 50, 100, 20, 100, and 50 μM for CDK1/2/4/5/6/7, respectively. Assay plates were covered to protect from light and spun for 1 min at 700 RPM. Reactions were allowed to perform for 60 minutes in dark with gentle shaking at room temperature after which 5 μL of 40 mM EDTA in detection buffer was added to stop reactions followed 5 μL of the Eu labeled antibodies giving final concentrations of 2 nM to detect the phosphorylation of the peptide substrates. Assay plates were read with the EnVision™ Multilabel Reader in TR-FRET mode (excitation at 320 nm and emission at 665 nm). The percent of inhibition was calculated from the means of data points using the formula: 100−(Signalcompound−NoSignalbackground)*100/(Signalvehicle−NoSignalbackground). The IC50s were determined with GraphPad Prism by the non-linear sigmoidal curve fitting of data from 10 doses.

CDK9/cyclin T1 = molecular target: T3, CDK9/cyclin T1 (Homo sapiens, UniProt P50750); experiment: LanthaScreen Eu kinase binding assay, CDK9; details: tracer 236 displacement, CDK9/cyclin T1 5 nM, 1 hour; read-out: CDK 9 inhibitory activity (IC50)
T3 construct: purchased ThermoFisher (Waltham, Mass.)
T3 sequence (P50750 whole entry): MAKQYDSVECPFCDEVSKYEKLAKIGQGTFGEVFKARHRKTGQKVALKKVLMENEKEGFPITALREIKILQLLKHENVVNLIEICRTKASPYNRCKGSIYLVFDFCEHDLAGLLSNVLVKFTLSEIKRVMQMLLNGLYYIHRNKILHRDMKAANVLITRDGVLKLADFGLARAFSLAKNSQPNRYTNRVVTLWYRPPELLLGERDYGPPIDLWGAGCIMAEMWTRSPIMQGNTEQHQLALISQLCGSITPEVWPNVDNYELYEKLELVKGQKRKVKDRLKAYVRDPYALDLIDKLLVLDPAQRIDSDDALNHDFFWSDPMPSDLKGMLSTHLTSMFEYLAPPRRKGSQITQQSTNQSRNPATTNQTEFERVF
T3 sequence (O60563 whole entry partner): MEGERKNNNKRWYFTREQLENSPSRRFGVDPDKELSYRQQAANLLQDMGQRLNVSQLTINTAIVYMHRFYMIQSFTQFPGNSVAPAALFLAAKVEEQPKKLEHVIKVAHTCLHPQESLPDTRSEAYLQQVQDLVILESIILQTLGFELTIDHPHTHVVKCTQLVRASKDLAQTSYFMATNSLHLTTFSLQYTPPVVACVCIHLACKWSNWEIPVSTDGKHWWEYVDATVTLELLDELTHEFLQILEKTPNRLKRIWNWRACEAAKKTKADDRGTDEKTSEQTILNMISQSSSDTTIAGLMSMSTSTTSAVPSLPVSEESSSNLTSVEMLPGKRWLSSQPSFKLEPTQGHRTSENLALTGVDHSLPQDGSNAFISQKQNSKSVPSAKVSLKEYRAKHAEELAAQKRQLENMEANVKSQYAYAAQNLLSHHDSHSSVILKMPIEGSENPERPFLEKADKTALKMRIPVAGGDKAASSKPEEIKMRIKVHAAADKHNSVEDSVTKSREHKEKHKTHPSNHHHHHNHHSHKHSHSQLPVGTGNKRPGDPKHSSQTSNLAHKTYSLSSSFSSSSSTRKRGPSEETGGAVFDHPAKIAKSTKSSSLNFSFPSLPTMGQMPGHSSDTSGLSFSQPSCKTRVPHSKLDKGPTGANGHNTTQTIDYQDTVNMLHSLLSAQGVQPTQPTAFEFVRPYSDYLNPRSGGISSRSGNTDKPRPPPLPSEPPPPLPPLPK
Description: as §2
The CDK9 kinase inhibitory activity of compounds was tested in the LanthaScreen Eu kinase binding assay from ThermoFisher. LanthaScreen® Eu Kinase binding assays are based on the binding and displacement of a proprietary, Alexa Fluor® 647-labeled, ATP-competitive kinase inhibitor scaffold (kinase tracer) to CDK9. CDK9/cyclin T1, Kinase tracer 236 and LanthaScreen® Eu-anti-His Antibody were purchased form ThermoFisher (Waltham, Mass.). 5 μL of CDK9/cyclin T1 (final 5 nM)/antibody (final 2 nM) mixture, 5 μL of compound in kinase buffer, and 5 μL of tracer (final 30 nM) were added to wells of a white OptiPlate-384 plate in this specific order. Assay plates were covered to protect from light, spun for 1 min at 700 RPM and incubated at room temperature for 1 hour. Assay plates were read with the EnVision™ Multilabel Reader in TR-FRET mode (excitation at 320 nm and emission at 665 nm). The percent of inhibition was calculated from the means of data points using the formula: 100−(Signalcompound−NoSignalbackgound)*100/(Signalvehicle−NoSignalbackground). The IC50s were determined with GraphPad Prism by the non-linear sigmoidal curve fitting of data from 10 doses.

CDK2 = molecular target: T4, CDK2 (Homo sapiens, UniProt P24941); experiment: Lance TR-FRET kinase assay, CDK2; format: biochemical; details: ATP 50 μM, 60 min, read-out: CDK 2 inhibitory activity (IC50)
T4 construct: purchased ThermoFisher (Waltham, Mass.)
Description: as §2, §3

CDK1 = molecular target: T5, CDK1 (Homo sapiens, UniProt P06493); experiment: Lance TR-FRET kinase assay, CDK1; format: biochemical; details: ATP 30 μM, 60 min, read-out: CDK 1 inhibitory activity (IC50)
T5 construct: purchased ThermoFisher (Waltham, Mass.)
T5 sequence (P06493 whole entry): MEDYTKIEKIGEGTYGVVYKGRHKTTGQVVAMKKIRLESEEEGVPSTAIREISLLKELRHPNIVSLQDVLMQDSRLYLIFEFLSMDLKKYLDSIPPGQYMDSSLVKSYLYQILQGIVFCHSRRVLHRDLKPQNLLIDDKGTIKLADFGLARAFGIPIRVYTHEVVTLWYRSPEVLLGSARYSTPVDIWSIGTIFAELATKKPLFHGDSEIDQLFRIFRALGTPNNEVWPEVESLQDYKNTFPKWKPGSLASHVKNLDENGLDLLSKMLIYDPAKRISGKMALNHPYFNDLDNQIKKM
T5 sequence (P14635 whole entry partner): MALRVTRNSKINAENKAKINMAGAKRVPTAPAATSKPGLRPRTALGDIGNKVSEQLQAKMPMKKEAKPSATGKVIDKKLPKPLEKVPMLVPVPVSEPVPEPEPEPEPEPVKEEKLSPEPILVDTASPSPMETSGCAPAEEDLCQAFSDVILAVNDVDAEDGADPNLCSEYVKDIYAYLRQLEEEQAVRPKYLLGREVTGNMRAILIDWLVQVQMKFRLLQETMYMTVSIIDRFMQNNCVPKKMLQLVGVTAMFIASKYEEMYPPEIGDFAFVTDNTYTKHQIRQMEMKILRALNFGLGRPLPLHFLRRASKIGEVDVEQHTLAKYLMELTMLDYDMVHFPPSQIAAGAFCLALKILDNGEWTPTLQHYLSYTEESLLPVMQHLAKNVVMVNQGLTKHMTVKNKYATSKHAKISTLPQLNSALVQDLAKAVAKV
Description: as §2, §3

CDK7 = molecular target: T6, CDK7 (Homo sapiens, UniProt P50613); experiment: Lance TR-FRET kinase assay, CDK7; format: biochemical; details: ATP 50 μM, 60 min, read-out: CDK 7 inhibitory activity (IC50)
T6 construct: purchased ThermoFisher (Waltham, Mass.)
T6 sequence (P50613 whole entry): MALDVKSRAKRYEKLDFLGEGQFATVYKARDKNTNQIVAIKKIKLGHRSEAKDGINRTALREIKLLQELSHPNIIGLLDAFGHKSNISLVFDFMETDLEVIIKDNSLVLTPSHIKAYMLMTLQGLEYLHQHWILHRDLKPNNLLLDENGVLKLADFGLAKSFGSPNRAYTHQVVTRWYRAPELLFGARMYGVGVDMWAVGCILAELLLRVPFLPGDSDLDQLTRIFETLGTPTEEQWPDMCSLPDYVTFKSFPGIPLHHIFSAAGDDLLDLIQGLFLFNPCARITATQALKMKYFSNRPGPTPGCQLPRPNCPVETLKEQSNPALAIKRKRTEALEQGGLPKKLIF
T6 sequence (P51946 whole entry partner): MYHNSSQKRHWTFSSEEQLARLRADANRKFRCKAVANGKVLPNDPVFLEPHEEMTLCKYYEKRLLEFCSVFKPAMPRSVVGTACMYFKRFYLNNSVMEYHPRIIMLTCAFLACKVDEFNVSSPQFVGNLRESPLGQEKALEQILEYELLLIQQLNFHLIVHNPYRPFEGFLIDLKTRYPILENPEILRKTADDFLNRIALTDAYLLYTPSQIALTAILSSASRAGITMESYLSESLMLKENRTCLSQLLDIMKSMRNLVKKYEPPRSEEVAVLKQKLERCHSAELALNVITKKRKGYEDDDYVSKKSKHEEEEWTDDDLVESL
T6 sequence (P51948 whole entry partner): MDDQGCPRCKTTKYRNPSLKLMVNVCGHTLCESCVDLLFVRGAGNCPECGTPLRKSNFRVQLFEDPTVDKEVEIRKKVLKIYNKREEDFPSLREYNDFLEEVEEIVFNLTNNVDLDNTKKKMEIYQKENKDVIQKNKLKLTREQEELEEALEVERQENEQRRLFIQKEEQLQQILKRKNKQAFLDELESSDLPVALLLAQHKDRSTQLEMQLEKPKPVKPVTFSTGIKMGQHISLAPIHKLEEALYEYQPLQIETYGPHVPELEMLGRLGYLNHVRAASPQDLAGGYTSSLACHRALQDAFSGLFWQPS
Description: as §1

T1 sequence (P11802 whole entry): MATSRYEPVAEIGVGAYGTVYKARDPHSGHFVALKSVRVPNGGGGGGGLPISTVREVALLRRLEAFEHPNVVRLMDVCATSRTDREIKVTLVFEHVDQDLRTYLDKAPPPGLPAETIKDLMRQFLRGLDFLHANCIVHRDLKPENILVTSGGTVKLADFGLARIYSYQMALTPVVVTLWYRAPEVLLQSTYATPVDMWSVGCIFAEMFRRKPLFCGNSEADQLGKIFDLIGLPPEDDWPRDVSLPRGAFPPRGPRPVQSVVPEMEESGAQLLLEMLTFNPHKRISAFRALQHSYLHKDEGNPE
T1 sequence (P24385 whole entry partner): as the sequence (P24385 whole entry partner) above

IC50 (CDK4) [nM] | IC50 (CDK6) [nM] | IC50 (CDK9/cyclin T1) [nM] | IC50 (CDK2) [nM] | IC50 (CDK1) [nM] | IC50 (CDK7) [nM] | SMILES
5 | 2.3 | – | – | – | – | CN(C)C(=O)c1sc2cnc(Nc3ccc(N4CCNCC4)cn3)cc2c1C1=CCCC1 [Compound A2, 3-(cyclopent-1-en-1-yl)-N,N-dimethyl-5-((5-(piperazin-1-yl)pyridin-2-yl)amino)thieno[2,3-c]pyridine-2-carboxamide]
413 | 174 | 420 | – | – | – | Cc1c(C(=O)N(C)C)sc2cnc(Nc3ccc(N4CCNCC4)cn3)cc12 [Compound A3, N,N,3-trimethyl-5-((5-(piperazin-1-yl)pyridin-2-yl)amino)thieno[2,3-c]pyridine-2-carboxamide]
4.6 | 2.1 | – | – | – | – | CN(C)C(=O)c1sc2cnc(Nc3ccc(N4CCNCC4)cn3)cc2c1C1CCC1 [Compound A4, 3-cyclobutyl-N,N-dimethyl-5-((5-(piperazin-1-yl)pyridin-2-yl)amino)thieno[2,3-c]pyridine-2-carboxamide]
3.7 | 2.1 | 5.2 | 124 | 501 | – | COC1(c2c(C(=O)N(C)C)sc3cnc(Nc4ccc(N5CCNCC5)cn4)cc23)CCCC1 [Compound A6, 3-(1-methoxycyclopentyl)-N,N-dimethyl-5-((5-(piperazin-1-yl)pyridin-2-yl)amino)thieno[2,3-c]pyridine-2-carboxamide]
4.7 | 6.4 | – | – | – | – | CN(C)C(=O)c1sc2cnc(Nc3ccc(N4CCNCC4)cn3)cc2c1C1CC2CC2C1 (stereo not shown) [Compound A7, 3-(bicyclo[3.1.0]hexan-3-yl)-N,N-dimethyl-5-((5-(piperazin-1-yl)pyridin-2-yl)amino)thieno[2,3-c]pyridine-2-carboxamide]
31 | 84 | 552 | – | – | – | O=C(c1sc2cnc(Nc3ccc(N4CCNCC4)cn3)cc2c1C1CCCC1)N1CCC1 [Compound A8, azetidin-1-yl(3-cyclopentyl-5-((5-(piperazin-1-yl)pyridin-2-yl)amino)thieno[2,3-c]pyridin-2-yl)methanone]
5.3 | 3.3 | – | – | – | – | N#CC1CN(C(=O)c2sc3cnc(Nc4ccc(N5CCNCC5)cn4)cc3c2C2CCCC2)C1 [Compound A9, 1-(3-cyclopentyl-5-((5-(piperazin-1-yl)pyridin-2-yl)amino)thieno[2,3-c]pyridine-2-carbonyl) azetidine-3-carbonitrile]
262 | 168 | 106 | – | – | – | CN(C)C(=O)c1sc2cnc(Nc3cccc(N4CCOCC4)c3)cc2c1C1CCCC1 [Compound A10, 3-cyclopentyl-N,N-dimethyl-5-((3-morpholinophenyl)amino)thieno[2,3-c]pyridine-2-carboxamide]
160 | 50 | 58 | – | – | – | CN(C)C(=O)c1sc2cnc(Nc3cccc(N4CCNCC4)c3)cc2c1C1CCCC1 [Compound A11, 3-cyclopentyl-N,N-dimethyl-5-((3-(piperazin-1-yl)phenyl)amino)thieno[2,3-c]pyridine-2-carboxamide]
29 | 20 | – | 1110 | 3680 | – | CN(C)C(=O)c1sc2cnc(Nc3ccc(N4CCNCC4)cn3)cc2c1C1CCC(F)(F)C1 (stereo not shown) [Compound A12, 3-(3,3-difluorocyclopentyl)-N,N-dimethyl-5-((5-(piperazin-1-yl)pyridin-2-yl)amino)thieno[2,3-c]pyridine-2-carboxamide]
34 | 25 | – | – | – | – | CN(C)C(=O)c1sc2cnc(Nc3ccc(N4CCNCC4)cn3)cc2c1C1CCOC1 (stereo not shown) [Compound A13, N,N-dimethyl-5-((5-(piperazin-1-yl)pyridin-2-yl)amino)-3-(tetrahydrofuran-3-yl)thieno[2,3-c]pyridine-2-carboxamide]
2.9 | 2.1 | 4.2 | 67.7 | 273 | – | CN(C)C(=O)c1sc2cnc(Nc3ccc(N4CCN(C(=O)C(O)CO)CC4)cn3)cc2c1C1CCCC1 (stereo not shown) [Compound A14, 3-cyclopentyl-5-((5-(4-(2,3-dihydroxypropanoyl)piperazin-1-yl)pyridin-2-yl)amino)-N,N-dimethylthieno[2,3-c]pyridine-2-carboxamide]
20.5 | 10.7 | – | – | – | – | CC(C)c1c(C(=O)N(C)C)sc2cnc(Nc3ccc(N4CCNCC4)cn3)cc12 [Compound A15, 3-isopropyl-N,N-dimethyl-5-((5-(piperazin-1-yl)pyridin-2-yl)amino)thieno[2,3-c]pyridine-2-carboxamide]
32.1 | 21 | 24 | – | – | – | CN(C)C(=O)c1sc2cnc(Nc3ccc(N4CCNCC4)cn3)cc2c1C1CC1 [Compound A16, 3-cyclopropyl-N,N-dimethyl-5-((5-(piperazin-1-yl)pyridin-2-yl)amino)thieno[2,3-c]pyridine-2-carboxamide]
12 | 20 | – | – | – | – | O=C(c1sc2cnc(Nc3ccc(N4CCNCC4)cn3)cc2c1C1CCCC1)N1CCCC1 [Compound A17, (3-cyclopentyl-5-((5-(piperazin-1-yl)pyridin-2-yl)amino)thieno[2,3-c]pyridin-2-yl)(pyrrolidin-1-yl)methanone]
60 | 262 | – | – | – | – | CC1(C)CN(C(=O)c2sc3cnc(Nc4ccc(N5CCNCC5)cn4)cc3c2C2CCCC2)C1 [Compound A18, (3-cyclopentyl-5-((5-(piperazin-1-yl)pyridin-2-yl)amino)thieno[2,3-c]pyridin-2-yl)(3,3-dimethylazetidin-1-yl)methanone]
22 | 18 | – | – | – | – | O=C(c1sc2cnc(Nc3ccc(N4CCNCC4)cn3)cc2c1C1CCCC1)N1CC(O)C1 [Compound A19, (3-cyclopentyl-5-((5-(piperazin-1-yl)pyridin-2-yl)amino)thieno[2,3-c]pyridin-2-yl)(3-hydroxyazetidin-1-yl)methanone]
0.9 | – | 0.6 | 9.2 | 8.7 | 7.2 | N#Cc1sc2cnc(Nc3ccc(N4CCNCC4)cn3)cc2c1C1CCCC1 [Compound B1s, 3-cyclopentyl-5-((5-(piperazin-1-yl)pyridin-2-yl)amino)thieno[2,3-c]pyridine-2-carbonitrile hydrochloride]
